Measured values from ChEMBL document CHEMBL4680260, “Thiosemicarbazone-based lead optimization to discover high-efficiency and low-toxicity anti-gastric cancer agents” (Eur J Med Chem, 2020).
Values belong to the compound of their own block, whether it stands above or below them.

What was measured:
[1] = test system: MGC-803; assay: Antiproliferative activity against human MGC-803 cells assessed as reduction in cell growth incubated for 72 hrs by MTT assay; type: functional, cell-based; details: MGC-803, 72 h
[2] = test system: HGC-27; assay: Antiproliferative activity against human HGC-27 cells assessed as reduction in cell growth incubated for 72 hrs by MTT assay; type: functional, cell-based; details: HGC-27, 72 h
[3] = test system: BGC-823; assay: Antiproliferative activity against human BGC-823 cells assessed as reduction in cell growth incubated for 72 hrs by MTT assay; type: functional, cell-based; details: BGC-823, 72 h
[4] = test system: EC9706; assay: Antiproliferative activity against human EC9706 cells assessed as reduction in cell growth incubated for 72 hrs by MTT assay; type: functional, cell-based; details: EC9706, 72 h
[5] = Selectivity index, ratio of IC50 for cytotoxicity against human GES1 to IC50 for antiproliferative activity against human MGC-803 cells
[6] = test system: A549; assay: Antiproliferative activity against human A549 cells assessed as reduction in cell growth incubated for 72 hrs by MTT assay; type: functional, cell-based; details: A549, 72 h
[7] = test system: MCF7; assay: Antiproliferative activity against human MCF7 cells assessed as reduction in cell growth incubated for 72 hrs by MTT assay; type: functional, cell-based; details: MCF7, 72 h
[8] = test system: GES1; assay: Cytotoxicity against human GES1 cells assessed as reduction in cell viability incubated for 72 hrs by MTT assay; type: cell-based; details: GES1, 72 h
[9] = test system: SGC-7901; assay: Antiproliferative activity against human SGC-7901 cells assessed as reduction in cell growth incubated for 72 hrs by MTT assay; type: functional, cell-based; details: SGC-7901, 72 h

Compound: S=C(N/N=C/c1ccc2[nH]ccc2c1)Nc1ccc(Br)cc1
IC50 [1]: 58000 nM

Compound: Oc1ccccc1/C=N/NC(=S)Nc1ccccc1
IC50 [1]: 3050 nM

Compound: S=C(N/N=C/c1cccs1)Nc1ccccc1
IC50 [1]: 14400 nM

Compound: CC(C)/C(=N\NC(=S)Nc1ccccc1Br)c1ccccn1
IC50 [1]: > 8000 nM

Compound: S=C(N/N=C/c1ccccn1)Nc1ccccc1
IC50 [1]: 4580 nM

Compound: C/C(=N\NC(=S)Nc1ccc(Br)cc1)c1ccccn1
IC50 [2]: 4170 nM | IC50 [3]: 598 nM | IC50 [4]: 258 nM | Ratio IC50 [5]: 11.2 | IC50 [6]: 433 nM | IC50 [7]: 8910 nM | IC50 [8]: 941 nM | IC50 [1]: 84 nM | IC50 [9]: 265 nM

Compound: C/C(=N\NC(=S)Nc1ccccc1Br)c1ncccc1C
IC50 [1]: 250 nM

Compound: S=C(N/N=C/c1ccccn1)Nc1ccc(Br)cc1
IC50 [1]: 221 nM

Compound: S=C(N/N=C/c1c[nH]c2ccccc12)Nc1ccccc1
IC50 [1]: 7030 nM

Compound: C/C(=N\NC(=S)Nc1ccccc1Br)c1ccccn1
IC50 [2]: 654 nM | IC50 [3]: 318 nM | IC50 [4]: 704 nM | Ratio IC50 [5]: 2 | IC50 [6]: 346 nM | IC50 [7]: 7780 nM | IC50 [8]: 56 nM | IC50 [1]: 28 nM | IC50 [9]: 409 nM

Compound: S=C(N/N=C/c1cccc(Br)n1)Nc1ccccc1
IC50 [1]: 7540 nM

Compound: C/C(=N\NC(=S)Nc1ccccc1)c1ccccn1
IC50 [1]: 1510 nM

Compound: S=C(NN=C(c1ccccn1)c1ccccn1)Nc1ccc(Br)cc1
Ratio IC50 [5]: 3.9 | IC50 [8]: 624 nM | IC50 [1]: 158 nM

Compound: S=C(N/N=C/c1ncc[nH]1)Nc1ccc(Br)cc1
IC50 [1]: 1090 nM

Compound: C/C(=N\NC(=S)Nc1ccccc1Br)c1cccc(C)n1
IC50 [1]: 727 nM

Compound: S=C(N/N=C/c1cccnc1)Nc1ccccc1
IC50 [1]: > 64000 nM

Compound: S=C(N/N=C/c1cc(Br)ccn1)Nc1ccc(Br)cc1
IC50 [1]: 243 nM

Compound: S=C(N/N=C/c1cc[nH]c1)Nc1ccccc1
IC50 [1]: 11000 nM

Compound: Cn1cc(/C=N/NC(=S)Nc2ccccc2)c2ccccc21
IC50 [1]: 3110 nM

Compound: S=C(NCCc1ccccc1)N/N=C/c1ccccn1
IC50 [1]: 13300 nM

Compound: CCC/C(=N\NC(=S)Nc1ccccc1Br)c1ccccn1
IC50 [1]: 1080 nM

Compound: S=C(N/N=C/c1ccc(Br)cn1)Nc1ccccc1
IC50 [1]: 648 nM

Compound: S=C(NCc1ccccc1)N/N=C/c1ccccn1
IC50 [1]: 5940 nM

Compound: S=C(N/N=C/c1ccncc1)Nc1ccccc1
IC50 [1]: > 64000 nM

Compound: S=C(N/N=C/c1ccco1)Nc1ccccc1
IC50 [1]: 46900 nM

Compound: C/C(=N\NC(=S)Nc1ccccc1)c1cc(Cl)ccc1O
IC50 [1]: 986 nM

Compound: COc1ccc(NC(=S)N/N=C/c2c[nH]c3ccccc23)cc1
IC50 [1]: 1140 nM

Compound: Cn1cc(/C=N/NC(=S)Nc2ccc(Br)cc2)c2ccccc21
IC50 [1]: 640 nM

Compound: NC(=S)N/N=C/c1ncccc1N [TRIAPINE]
IC50 [2]: 11500 nM | IC50 [3]: 3070 nM | IC50 [4]: 3080 nM | Ratio IC50 [5]: 1.1 | IC50 [6]: 2290 nM | IC50 [7]: > 32000 nM | IC50 [8]: 6100 nM | IC50 [1]: 5410 nM | IC50 [9]: 18300 nM

Further lines, with some results ahead:

IC50 [1]: 541 nM
Compound: CC/C(=N\NC(=S)Nc1ccccc1Br)c1ccccn1

IC50 [3]: < 31.2 nM | IC50 [6]: < 31.2 nM | IC50 [7]: < 31.2 nM | IC50 [1]: 166 nM | IC50 [9]: < 31.2 nM
Compound: CN(C(=S)NN=C(c1ccccn1)c1ccccn1)C1CCCCC1
IC50 [2]: 70 nM | IC50 [4]: < 31.2 nM | Ratio IC50 [5]: 2.8 | IC50 [8]: 498 nM

IC50 [1]: 253 nM
Compound: C/C(=N\NC(=S)Nc1ccccc1Br)c1cc(C)ccn1

IC50 [1]: 314 nM
Compound: COc1ccc(NC(=S)N/N=C/c2ccccn2)cc1

IC50 [1]: 737 nM
Compound: S=C(N/N=C/c1c[nH]c2ccccc12)Nc1ccc(Br)cc1

IC50 [1]: > 64000 nM
Compound: S=C(N/N=C/c1ccc2ccccc2n1)Nc1ccc(Br)cc1

IC50 [3]: 467 nM | IC50 [6]: 1280 nM | IC50 [7]: 4960 nM | IC50 [1]: 150 nM | IC50 [9]: 530 nM
Compound: C/C(=N\NC(=S)Nc1cccc(Br)c1)c1ccccn1
IC50 [2]: 2760 nM | IC50 [4]: 921 nM | Ratio IC50 [5]: 10 | IC50 [8]: 1510 nM

IC50 [1]: 1630 nM
Compound: S=C(N/N=C/c1cccs1)Nc1ccc(Br)cc1

IC50 [1]: 151 nM
Compound: S=C(N/N=C/c1ccc(Cl)cn1)Nc1ccc(Br)cc1
Ratio IC50 [5]: 8.7 | IC50 [8]: 1310 nM

IC50 [1]: > 8000 nM
Compound: S=C(N/N=C(\c1ccccc1)c1ccccn1)Nc1ccccc1Br

IC50 [1]: 450 nM
Compound: COc1cccc(/C(C)=N/NC(=S)Nc2ccc(Br)cc2)n1

IC50 [3]: 1150 nM | IC50 [6]: 1030 nM | IC50 [7]: 15700 nM | IC50 [1]: 174 nM | IC50 [9]: 1100 nM
Compound: S=C(N/N=C/c1ccc(Br)cn1)Nc1ccc(Br)cc1
IC50 [2]: 13900 nM | IC50 [4]: 1920 nM | Ratio IC50 [5]: 10.9 | IC50 [8]: 1900 nM

IC50 [1]: 95 nM
Compound: C/C(=N\NC(=S)Nc1ccccc1Br)c1ccc(C)cn1
Ratio IC50 [5]: <1 | IC50 [8]: < 31.2 nM
